Values quoted from earlier work, collected in patent publication US8158147B2, “Modified release formulations of at least one form of tramadol” (priority 2002, dated 2012).
Read-outs that look alike come from different tables or passages of the source.

Tests used:
osteoarthritis [1] = settings: Study No. 058; 6 weeks; rofecoxib 12.5 mg, Nabumetone 1500 mg
osteoarthritis [2] = settings: 12 weeks, celecoxib 100 mg BID, Naproxen 500 mg BID

| SMILES | WOMAC pain walking on a flat surface, mean difference vs placebo (osteoarthritis [1]) [mm] | LS mean difference in pain VAS change from baseline vs placebo (osteoarthritis [2]; Study No. 020) [mm] | LS mean difference in pain VAS change from baseline vs placebo (osteoarthritis [2]; Study No. 054) [mm] |
| --- | --- | --- | --- |
| CS(=O)(=O)c1ccc(C2=C(c3ccccc3)C(=O)OC2)cc1 [rofecoxib, Rofecoxib] | 9.0 |  |  |
| COc1ccc2cc(CCC(C)=O)ccc2c1 [Nabumetone] | 10 |  |  |
| COc1ccc2cc([C@H](C)C(=O)O)ccc2c1 [Naproxen] |  | 7.6 | 11.2 |
